Results: patent US20230265151A1, “GIP/GLP1 CO-AGONIST COMPOUNDS” (priority 2020, published 2023)
Like-named read-outs stand apart in the source and are kept apart here.

Key:
hGCGR = biological target: T1, hGCGR (Homo sapiens, UniProt P47871); assay: Functional cAMP formation (HTRF) in HEK-293 clonal cells expressing hGCGR, 0.1% bovine casein, without or with 1.0% human serum albumin; type: cell-based; conditions: geometric mean, read-out: hGCGR EC50, nM (SEM, n)
T1 construct: expressed in transfected cells
Outline: (§1)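 Cells were stimulated with peptide for 30 min at 37° C, then intracellular cAMP was measured by competitive HTRF (665/620 nm ratio) and converted to nM using a cAMP standard curve. Relative EC50 and Emax came from four-parameter logistic fits of percent maximal response against peptide concentration.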

hGLP-1R = hGLP-1R (Homo sapiens, UniProt P43220); assay: Functional cAMP formation (HTRF) in HEK-293 clonal cells expressing hGLP-1R, 0.1% bovine casein, without or with 1.0% human serum albumin; type: cell-based; design: expressed in transfected cells; conditions: for EC50: geometric mean, read-out: hGLP-1R EC50, nM (SEM, n)
Outline: as §1

[1] = biological target: T2, human Gcg receptor (hGcgR) (Homo sapiens, UniProt P47871); assay: [125I]-Glucagon binding, SPA with membranes of HEK293 cells expressing hGcgR; conditions: human GcgR; geometric mean (SEM, n); read-out: Binding Affinity Ki, nM (SEM, n) hGCGR
T2 construct: expressed in transfected cells; crude membranes
Experimental: Two methods are used for the preparation of crude cell membranes.
Method 1: Frozen cell pellets are lysed on ice in hypotonic buffer containing 50 mM Tris HCl, pH 7.5, and Roche Complete™ Protease Inhibitors with EDTA. […] The homogenate is centrifuged at 4° C. at 1100 × g for 10 minutes. The supernatant is collected and stored on ice while the pellets are resuspended in homogenization buffer and rehomogenized as described above. The homogenate is centrifuged at 1100 × g for 10 minutes. The second supernatant is combined with the first supernatant and centrifuged at 35000 × g for 1 hour at 4° C. The resulting membrane pellet is resuspended in homogenization buffer containing protease inhibitors at approximately 1 to 3 mg/mL, quick frozen in liquid nitrogen and stored as aliquots in a -80° C. freezer until use.
The homogenate is centrifuged at 4° C. at 1800 × g for 15 minutes. The supernatant is collected and stored on ice while the pellets are resuspended in homogenization buffer (without DNAse I) and rehomogenized as described above. The homogenate is centrifuged at 1800 × g for 15 minutes. The second supernatant is combined with the first supernatant and centrifuged an additional time at 1800 × g for 15 minutes. The overall supernatant is then centrifuged at 25000 × g for 30 minutes at 4° C. The resulting membrane pellet is resuspended in homogenization buffer (without DNAse I) containing protease inhibitors at approximately 1 to 3 mg/mL and stored as aliquots in a -80° C. freezer until use.
The human Gcg receptor binding assays are performed using a Scintillation Proximity Assay (SPA) format with wheat germ agglutinin (WGA) beads (Perkin Elmer). The binding buffer contains 25 mM 4-(2-hydroxyethyl)-1-piperazineethanesulfonic acid (HEPES), pH 7.4, 2.5 mM CaCl2, 1 mM MgCh, 0.1% (w/v) bacitracin (Research Products), 0.003% (w/v) Polyoxyethylenesorbitan monolaurate (TWEEN®-20), and Roche Complete™ Protease Inhibitors without EDTA. […] Next, 5 µL serially diluted compound or DMSO is transferred into Corning® 3632 clear bottom assay plates containing 45 µL assay binding buffer or unlabeled Gcg control (non-specific binding or NSB, at 1 µM final). […] Plates are sealed and mixed on a plate shaker (setting 6) for 1 minute and read with a PerkinElmer Trilux MicroBeta® scintillation counter after 12 hours of incubation/settling time at room temperature.
Raw CPM data for concentration curves of peptides, Gcg, GLP-1, or GIP are converted to percent inhibition by subtracting nonspecific binding (binding in the presence of excess unlabeled Gcg, GLP-1, or GIP, respectively) from the individual CPM values and dividing by the total binding signal, also corrected by subtracting nonspecific binding. Data are analyzed using four-parameter (curve maximum, curve minimum, IC50, Hill slope) nonlinear regression routines (Genedata Screener, version 12.0.4, Genedata AG, Basal, Switzerland). […] Values for Ki are reported as the geometric mean, with error expressed as the standard error of the mean (SEM) and n is equal to the number of independent replicates (determined in assays performed on different days). Geometric Means are calculated as follows: […]
The Ki Ratio (Ki for native control peptide/Ki for test compound) at each receptor and each species is calculated. The Ki Ratio is a rapid indication of the apparent affinity of a peptide compared to the native control peptide.
n=⅟x means that only one value out of the total number of replicates (x) is used to express the mean. SEM is only calculated when n=2 or greater non-qualified results exist. Means are expressed as GeoMetric means with the standard error of the mean (SEM) and the number of replicates (n) indicated in parenthesis.

hGIPR = biological target: T3, hGIPR (Homo sapiens, UniProt P48546); assay: Functional cAMP formation (HTRF) in HEK-293 clonal cells expressing hGIPR, 0.1% bovine casein, without or with 1.0% human serum albumin; type: cell-based; conditions: for EC50: geometric mean, read-out: hGIPR EC50, nM (SEM, n); for Emax: read-out: hGIPR Emax, % ± SEM
T3 construct: expressed in transfected cells
T3 sequence (P48546 22-466): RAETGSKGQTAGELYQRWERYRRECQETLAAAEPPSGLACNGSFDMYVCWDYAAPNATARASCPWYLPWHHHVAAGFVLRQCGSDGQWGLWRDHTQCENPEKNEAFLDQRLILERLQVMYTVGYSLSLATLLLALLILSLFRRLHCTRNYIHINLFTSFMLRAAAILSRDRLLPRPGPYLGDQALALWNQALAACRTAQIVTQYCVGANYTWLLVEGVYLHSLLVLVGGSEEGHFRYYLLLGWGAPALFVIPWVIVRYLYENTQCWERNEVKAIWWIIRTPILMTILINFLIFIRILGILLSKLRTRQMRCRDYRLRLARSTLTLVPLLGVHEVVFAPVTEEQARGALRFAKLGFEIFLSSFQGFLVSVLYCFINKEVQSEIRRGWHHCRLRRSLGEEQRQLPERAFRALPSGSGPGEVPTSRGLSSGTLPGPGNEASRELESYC
Outline: as §1

[2] = 0.1% bovine casein and 1.0% human serum albumin, 37° C.
[3] = cAMP, incubated at 37° C., 0.1% bovine casein (no human serum albumin)
[4] = HEK293, 0.1% bovine casein and 1.0% human serum albumin, 37° C., percent of maximal response to GIP(1-42)NH2
[5] = HEK293, percent of maximal response to GIP(1-42)NH2, 37° C., 0.1% bovine casein, arithmetic mean

T1 sequence (P47871 26-477): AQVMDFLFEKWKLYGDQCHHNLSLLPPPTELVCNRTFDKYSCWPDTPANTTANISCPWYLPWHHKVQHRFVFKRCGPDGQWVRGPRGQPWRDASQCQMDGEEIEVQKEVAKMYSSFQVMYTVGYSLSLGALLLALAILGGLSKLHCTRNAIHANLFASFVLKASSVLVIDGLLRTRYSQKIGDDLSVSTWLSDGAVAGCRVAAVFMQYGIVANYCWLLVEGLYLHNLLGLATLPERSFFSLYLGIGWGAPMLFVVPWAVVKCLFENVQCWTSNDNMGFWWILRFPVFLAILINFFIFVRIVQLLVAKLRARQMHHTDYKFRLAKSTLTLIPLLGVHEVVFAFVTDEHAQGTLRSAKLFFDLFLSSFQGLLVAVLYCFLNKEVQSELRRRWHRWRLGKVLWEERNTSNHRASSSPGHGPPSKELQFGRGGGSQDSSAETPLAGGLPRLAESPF
T2 sequence (P47871 26-477): as above
Chain of hGLP-1R (P43220 24-463): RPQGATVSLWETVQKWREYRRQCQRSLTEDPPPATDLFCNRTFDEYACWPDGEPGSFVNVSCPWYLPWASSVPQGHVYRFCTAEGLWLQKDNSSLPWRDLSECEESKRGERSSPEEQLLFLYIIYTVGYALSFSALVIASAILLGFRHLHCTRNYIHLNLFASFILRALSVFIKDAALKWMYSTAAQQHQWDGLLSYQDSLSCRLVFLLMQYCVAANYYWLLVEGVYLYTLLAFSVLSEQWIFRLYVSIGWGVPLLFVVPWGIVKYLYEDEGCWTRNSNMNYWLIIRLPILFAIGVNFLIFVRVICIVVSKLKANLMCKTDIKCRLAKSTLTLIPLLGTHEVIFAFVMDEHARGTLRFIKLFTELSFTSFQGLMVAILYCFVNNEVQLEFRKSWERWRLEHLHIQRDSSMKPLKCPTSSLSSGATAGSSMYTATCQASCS

SMILES | EC50 (hGCGR; [2]) [nM] | EC50 (hGCGR; [3]) [nM] | EC50 (hGLP-1R; [2]) [nM] | Emax (hGLP-1R; HEK293, 0.1% bovine casein and 1.0% human serum albumin, 37° C., percent of maximal response to GLP-1(7-36)NH2, read-out: hGLP-1R Emax, % ± SEM) [%] | Ki [1] [nM] | EC50 (hGIPR; [2]) [nM] | Emax (hGIPR; [4]) [%] | Emax (hGIPR; [5]) [%] | EC50 (hGLP-1R; [3]) [nM] | EC50 (hGIPR; [3]) [nM]
CC[C@H](C)[C@H](NC(=O)[C@H](CC(C)C)NC(=O)[C@](C)(Cc1ccc(O)cc1)NC(=O)[C@@H](CCC(=O)O)NC(=O)[C@@H](NC(=O)[C@H](Cc1ccccc1)NC(=O)[C@H](CCC(=O)O)NC(=O)C(C)(C)NC(=O)[C@H](CCC(N)=O)NC(=O)[C@H](C)NC(=O)[C@H](CCCCNC(=O)COCCOCCNC(=O)COCCOCCNC(=O)CC[C@H](NC(=O)CCCCCCCCCCCCC(=O)O)C(=O)O)NC(=O)[C@H](CCCN)NC(=O)[C@H](CC(=O)O)NC(=O)[C@H](CC(C)C)NC(=O)[C@](C)(CC(C)C)NC(=O)[C@@H](NC(=O)[C@H](CO)NC(=O)[C@H](CCCCNC(=O)COCCOCCNC(=O)COCCOCCNC(=O)CC[C@H](NC(=O)CCCCCCCCCCCCC(=O)O)C(=O)O)NC(=O)[C@H](CC(=O)O)NC(=O)[C@H](CO)NC(=O)[C@@H](NC(=O)[C@](C)(Cc1ccccc1F)NC(=O)[C@@H](NC(=O)CNC(=O)[C@H](CCC(=O)O)NC(=O)C(C)(C)NC(=O)[C@@H](N)Cc1ccc(O)cc1)[C@@H](C)O)[C@@H](C)O)[C@@H](C)CC)[C@@H](C)CC)C(=O)N[C@@H](CCC(=O)O)C(=O)NCC(=O)NCC(=O)N1CCC[C@H]1C(=O)N[C@@H](CO)C(=O)N[C@@H](CO)C(=O)NCC(=O)N[C@@H](C)C(=O)N1CCC[C@H]1C(=O)N1CCC[C@H]1C(=O)N1CCC[C@H]1C(=O)N[C@@H](CO)C(N)=O [Example 27] | > 9950 | > 9950 | 70.2 | 110 ± 3.03 | > 958 | 6.78 | 82.8 ± 1.14 | 88.8 |  | 
CC[C@H](C)[C@H](NC(=O)[C@H](CC(C)C)NC(=O)[C@](C)(Cc1ccc(O)cc1)NC(=O)[C@@H](CCC(=O)O)NC(=O)[C@@H](NC(=O)[C@H](Cc1ccccc1)NC(=O)[C@H](CCC(=O)O)NC(=O)C(C)(C)NC(=O)[C@H](CCC(N)=O)NC(=O)[C@H](C)NC(=O)[C@H](CCCCNC(=O)COCCOCCNC(=O)COCCOCCNC(=O)CC[C@H](NC(=O)CCCCCCCCCCCCC(=O)O)C(=O)O)NC(=O)[C@H](CCCN)NC(=O)[C@H](CC(=O)O)NC(=O)[C@H](CC(C)C)NC(=O)[C@](C)(CC(C)C)NC(=O)[C@H](CCCCNC(=O)COCCOCCNC(=O)COCCOCCNC(=O)CC[C@H](NC(=O)CCCCCCCCCCCCC(=O)O)C(=O)O)NC(=O)[C@H](CO)NC(=O)[C@H](Cc1ccncc1)NC(=O)[C@H](CC(=O)O)NC(=O)[C@H](CO)NC(=O)[C@@H](NC(=O)[C@](C)(Cc1ccccc1F)NC(=O)[C@@H](NC(=O)CNC(=O)[C@H](CCC(=O)O)NC(=O)C(C)(C)NC(=O)[C@@H](N)Cc1ccc(O)cc1)[C@@H](C)O)[C@@H](C)O)[C@@H](C)CC)C(=O)N[C@@H](CCC(=O)O)C(=O)NCC(=O)NCC(=O)N1CCC[C@H]1C(=O)N[C@@H](CO)C(=O)N[C@@H](CO)C(=O)NCC(=O)N[C@@H](C)C(=O)N1CCC[C@H]1C(=O)N1CCC[C@H]1C(=O)N1CCC[C@H]1C(=O)N[C@@H](CO)C(N)=O [Example 28] | > 9950 | > 9950 |  |  | > 966 | 2.08 | 93 ± 7.02 | 95.4 ± 1.58 | 2.65 | 
CC[C@H](C)[C@H](NC(=O)[C@H](CC(C)C)NC(=O)[C@](C)(Cc1ccc(O)cc1)NC(=O)[C@@H](CCC(=O)O)NC(=O)[C@@H](NC(=O)[C@H](Cc1ccccc1)NC(=O)[C@H](CCC(=O)O)NC(=O)C(C)(C)NC(=O)[C@H](CCC(N)=O)NC(=O)[C@H](C)NC(=O)[C@H](CCCCNC(=O)COCCOCCNC(=O)COCCOCCNC(=O)[C@@H](N)CCCCNC(=O)CC[C@H](NC(=O)CCCCCCCCCCCCC(=O)O)C(=O)O)NC(=O)[C@H](CCCN)NC(=O)[C@H](CC(=O)O)NC(=O)[C@H](CC(C)C)NC(=O)[C@](C)(CC(C)C)NC(=O)[C@@H](NC(=O)[C@H](CO)NC(=O)[C@H](Cc1ccncc1)NC(=O)[C@H](CC(=O)O)NC(=O)[C@H](CO)NC(=O)[C@@H](NC(=O)[C@](C)(Cc1ccccc1F)NC(=O)[C@@H](NC(=O)CNC(=O)[C@H](CCC(=O)O)NC(=O)C(C)(C)NC(=O)[C@@H](N)Cc1ccc(O)cc1)[C@@H](C)O)[C@@H](C)O)[C@@H](C)CC)[C@@H](C)CC)C(=O)N[C@@H](CCC(=O)O)C(=O)NCC(=O)NCC(=O)N[C@@H](CCCCNC(=O)COCCOCCNC(=O)COCCOCCNC(=O)[C@@H](N)CCCCNC(=O)CC[C@H](NC(=O)CCCCCCCCCCCCC(=O)O)C(=O)O)C(=O)N[C@@H](CO)C(=O)N[C@@H](CO)C(=O)NCC(=O)N[C@@H](C)C(=O)N1CCC[C@H]1C(=O)N1CCC[C@H]1C(=O)N1CCC[C@H]1C(=O)N[C@@H](CO)C(N)=O [Example 34] | > 9950 | > 9950 | 19.8 |  | > 957 | 0.213 | 89.1 ± 2 | 97.4 ± 2.34 | 1 | 0.0148
